Test results: ChEMBL document CHEMBL1201862, “PubChem BioAssay data set” (2004)
Activity calls are given as the source filed them.

Legend:
[1] = Late stage counterscreen for inhibitors of Trypanosoma brucei methionyl tRNA synthetase (MetRS): Luminescence-based cell-based high throughput dose response assay to identify compounds that are cytotoxic to Jurkat human T lymphocyte cells.; assay type: functional
[2] = target: T1, Methionyl-tRNA synthetase, putative (Trypanosoma brucei brucei, UniProt Q38C91); assay type: functional, Trypanosoma brucei brucei strain 927/4 GUTat10.1
T1 sequence (Q38C91 whole entry): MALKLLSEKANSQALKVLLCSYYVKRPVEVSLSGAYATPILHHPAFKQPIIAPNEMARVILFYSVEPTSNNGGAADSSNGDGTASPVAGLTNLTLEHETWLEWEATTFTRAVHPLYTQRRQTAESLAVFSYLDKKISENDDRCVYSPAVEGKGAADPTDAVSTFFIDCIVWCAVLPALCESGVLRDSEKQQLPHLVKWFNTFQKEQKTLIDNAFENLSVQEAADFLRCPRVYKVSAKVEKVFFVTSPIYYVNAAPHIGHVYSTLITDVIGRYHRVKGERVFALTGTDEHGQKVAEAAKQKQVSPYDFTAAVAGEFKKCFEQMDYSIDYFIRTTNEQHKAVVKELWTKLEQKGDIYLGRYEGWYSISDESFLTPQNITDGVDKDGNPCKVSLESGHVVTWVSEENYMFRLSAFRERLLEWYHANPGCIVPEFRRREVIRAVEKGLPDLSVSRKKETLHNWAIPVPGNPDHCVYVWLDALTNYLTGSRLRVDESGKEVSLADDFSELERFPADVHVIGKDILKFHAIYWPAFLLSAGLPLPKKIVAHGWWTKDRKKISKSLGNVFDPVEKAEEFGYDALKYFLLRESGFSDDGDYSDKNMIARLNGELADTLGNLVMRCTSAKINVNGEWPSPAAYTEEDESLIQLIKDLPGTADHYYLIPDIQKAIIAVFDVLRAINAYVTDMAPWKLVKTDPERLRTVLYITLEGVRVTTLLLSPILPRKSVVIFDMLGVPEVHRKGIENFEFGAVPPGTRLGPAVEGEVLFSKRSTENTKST

[3] = target: T1, Methionyl-tRNA synthetase, putative; assay type: functional, Trypanosoma brucei brucei strain 927/4 GUTat10.1; remark: listed apart in the source
[4] = Counterscreen for inhibitors of Trypanosoma brucei methionyl tRNA synthetase (MetRS): Luminescence-based cell-based high throughput dose response assay to identify compounds that are cytotoxic to Jurkat human T lymphocyte cells.; assay type: functional
[5] = HEK293 cell cytotoxicity, dose response, cytotoxicity control, dry powder samples (AID 720567); assay type: functional, cell-based
[6] = test system: HT-1080; experiment: cytotoxicity in HT1080 fibrosarcoma cells, cell-based, fluorescence readout (AID 620); assay type: functional; settings: Homo sapiens
[7] = target: Luciferin 4-monooxygenase (Photinus pyralis, UniProt P08659); experiment: Counter Screen for Luciferase-based Assay Positives. [Related pubchem assays: 620, 618, 411 ]
[8] = target: 1-phosphatidylinositol 4,5-bisphosphate phosphodiesterase beta-3 (Homo sapiens, UniProt Q01970); experiment: Fluorescence-based biochemical high throughput dose response assay to identify inhibitors of phospholipase C isozymes (PLC-B3).
[9] = target: 1-phosphatidylinositol 4,5-bisphosphate phosphodiesterase gamma-1 (Homo sapiens, UniProt P19174); experiment: Counterscreen for inhibitors of phospholipase C isozymes (PLC-B3): Fluorescence-based biochemical high throughput dose response assay to identify inhibitors of phospholipase C isozymes (PLC-gamma1).
[10] = CEM21 lymphoblast cell cytotoxicity, dose response, cytotoxicity control for viral fusion inhibitor project, CellTiter-Glo luminescence, cherry-picked (AID 652042); assay type: functional, cell-based;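 note: potency for signal decrease meaning cytotoxicity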
[11] = inhibitors of HIV Env-driven cell fusion, dose response, cherry-pick (AID 652057); assay type: functional, cell-based
[12] = HIV Env cell-cell fusion inhibitors, dose response, HIV entry, plate reader, dry powder (AID 687023); assay type: functional, cell-based
[13] = CEM21 cell cytotoxicity, dose response, cytotoxicity control, plate reader, dry powder (AID 687026); assay type: functional, cell-based
[14] = growth inhibition of replicating M. tuberculosis, dose response, counter-screen, dry powder, IC90 (AID 651617); assay type: functional; settings: Mycobacterium tuberculosis
[15] = inhibitors of non-replicating M. tuberculosis, dose response, luciferase, dry powder (AID 651619); assay type: functional; settings: Mycobacterium tuberculosis
[16] = inhibitors of non-replicating M. tuberculosis, dose response, luciferase, dry powder (AID 651620); assay type: functional; settings: Mycobacterium tuberculosis
[17] = cytotoxicity in HepG2 cells, dose response, cytotoxicity control, cell-based, plate reader, dry powder (AID 651947); assay type: functional
[18] = cytotoxicity in HeLa cells, dose response, cytotoxicity control, cell-based, plate reader, dry powder (AID 651946); assay type: functional
[19] = target: Sphingosine 1-phosphate receptor 1 (Homo sapiens, UniProt P21453); experiment: Late-stage counterscreen for antagonists of kappa opioid receptor 1 (OPRK1): fluorescence-based cell-based dose response assay to identify antagonists of Sphingosine 1-Phosphate Receptor 1 (S1P1).; assay type: functional
[20] = target: Delta-type opioid receptor (Homo sapiens, UniProt P41143); experiment: Late-stage results from the probe development effort to identify antagonists of OPRK1: fluorescence-based cell-based dose response OPRD1 counterscreen, Set 2.; assay type: functional
[21] = target: Kappa-type opioid receptor (Homo sapiens, UniProt P41145); experiment: Late-stage fluorescence-based cell-based dose response assay for antagonists of kappa opioid receptor 1 (OPRK1).; assay type: functional
[22] = target: Mu-type opioid receptor (Homo sapiens, UniProt P35372); experiment: Late-stage results from the probe development effort to identify antagonists of OPRK1: luminescence-based cell-based dose response OPRM1 counterscreen, Set 2.; assay type: functional
[23] = HEK293T cell cytotoxicity, dose response, cytotoxicity control, CellTiter-Glo luminescence, dry powder, set 6 (AID 651949); assay type: functional, cell-based; settings: HEK293
[24] = inhibitors of fibronectin matrix deposition, dose response, AH1F cells, Alexa488-FN fluorescence, cherry-picks (AID 1035475); assay type: functional, cell-based
[25] = target: Glucose-6-phosphate 1-dehydrogenase (Homo sapiens, UniProt P11413); experiment: human G6PD enzyme inhibitors, dose response, selectivity assay for P. falciparum G6PD inhibitor project, biochemical, fluorescence (AID 504792); assay type: functional
[26] = HeLa cell cytotoxicity, dose response, cytotoxicity control for MgcRacGAP inhibitor project (AID 624300); assay type: functional
[27] = test system: A-375; experiment: MITF: Counter assay: A375 proliferation Measured in Cell-Based System Using Plate Reader - 2084-03_Inhibitor_Dose_DryPowder_Activity. [Related pubchem assays (depositor defined):AID488944]; assay type: functional; settings: Homo sapiens
[28] = target: SWI/SNF-related matrix-associated actin-dependent regulator of chromatin subfamily A member 2 (Homo sapiens, UniProt P51531); experiment: Luminescence-based cell-based high throughput dose response assay to identify activators of the function of SWI/SNF related, matrix associated, actin dependent regulator of chromatin, subfamily a, member 2 (SMARCA2, BRM).; assay type: functional
[29] = cells; settings: HEK293
[30] = target: T2, Microphthalmia-associated transcription factor (Homo sapiens, UniProt O75030); experiment: TRPM1 promoter luciferase signal decrease, dose response, MITF inhibitor project, cell-based, SK-MEL-5, cherry-picked, set 3 (AID 493073); assay type: functional
T2 sequence (O75030 whole entry): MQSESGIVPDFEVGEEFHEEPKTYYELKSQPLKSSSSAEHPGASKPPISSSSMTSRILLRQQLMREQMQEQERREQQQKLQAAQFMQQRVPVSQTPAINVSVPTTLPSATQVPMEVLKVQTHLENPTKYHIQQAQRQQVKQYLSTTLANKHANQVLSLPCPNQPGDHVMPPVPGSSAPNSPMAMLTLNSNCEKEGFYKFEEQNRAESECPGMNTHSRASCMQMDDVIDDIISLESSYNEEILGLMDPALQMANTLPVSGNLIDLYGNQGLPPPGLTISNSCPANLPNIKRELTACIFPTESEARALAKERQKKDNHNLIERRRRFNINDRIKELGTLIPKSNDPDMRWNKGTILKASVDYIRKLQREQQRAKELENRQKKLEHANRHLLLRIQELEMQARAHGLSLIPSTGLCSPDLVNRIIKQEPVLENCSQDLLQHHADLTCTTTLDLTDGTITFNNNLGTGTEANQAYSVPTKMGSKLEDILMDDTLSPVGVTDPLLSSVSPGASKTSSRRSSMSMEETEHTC

[31] = cells; settings: A549
[32] = Counterscreen for activators of the function of SWI/SNF related, matrix associated, actin dependent regulator of chromatin, subfamily a, member 2 (SMARCA2, BRM): Luminescence-based cell-based high throughput dose response assay to identify non-selective compounds using the VP16 reporter assay.; assay type: functional
[33] = HepG2 cell cytotoxicity, dose response, cytotoxicity control, ATP luminescence, cherry-pick, set 6 (AID 1053125); assay type: functional, cell-based
[34] = HepG2 cell cytotoxicity, dose response, cytotoxicity control, ATP luminescence, cherry-pick, activator set 2 (AID 1053143); assay type: functional, cell-based
[35] = Luminescence Cell-Based Dose Retest to Confirm Inhibitors of Cancer Stem Cells. [Related pubchem assays (depositor defined):AID2717, AID2721]; assay type: functional; settings: Homo sapiens
[36] = Luminescence-based cell-based high throughput dose response assay to identify activators of the DAF-12 from the parasite S. stercoralis (ssDAF-12).; assay type: functional
[37] = target: T3, Protein skinhead-1 (Caenorhabditis elegans, UniProt P34707); assay type: functional
T3 sequence (P34707 whole entry): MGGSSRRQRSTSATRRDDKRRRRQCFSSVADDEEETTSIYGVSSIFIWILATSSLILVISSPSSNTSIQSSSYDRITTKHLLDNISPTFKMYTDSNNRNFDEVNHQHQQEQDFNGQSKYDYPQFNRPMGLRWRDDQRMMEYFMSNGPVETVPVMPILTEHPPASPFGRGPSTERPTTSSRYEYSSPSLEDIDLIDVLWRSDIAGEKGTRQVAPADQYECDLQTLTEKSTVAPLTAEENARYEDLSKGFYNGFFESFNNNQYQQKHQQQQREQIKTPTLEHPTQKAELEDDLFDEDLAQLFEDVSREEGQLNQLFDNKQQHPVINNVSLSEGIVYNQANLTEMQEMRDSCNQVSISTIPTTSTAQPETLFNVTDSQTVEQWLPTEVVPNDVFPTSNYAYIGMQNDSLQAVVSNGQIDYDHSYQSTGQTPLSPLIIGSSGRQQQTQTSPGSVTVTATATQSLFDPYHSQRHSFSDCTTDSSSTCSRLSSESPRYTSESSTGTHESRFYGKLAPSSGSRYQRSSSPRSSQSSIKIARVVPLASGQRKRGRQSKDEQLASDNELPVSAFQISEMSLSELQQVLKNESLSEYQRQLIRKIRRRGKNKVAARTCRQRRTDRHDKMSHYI

[38] = target: T4, Oxysterols receptor LXR-beta (Homo sapiens, UniProt P55055); experiment: LXR agonists, Gal4 luciferase reporter, dose response, counter-screen for ssDAF-12 agonist project, cell-based, luminescence, HEK293, S. stercoralis campaign (AID 720737); assay type: functional; settings: read-out: IC50 (the source's name)
T4 sequence (P55055 whole entry): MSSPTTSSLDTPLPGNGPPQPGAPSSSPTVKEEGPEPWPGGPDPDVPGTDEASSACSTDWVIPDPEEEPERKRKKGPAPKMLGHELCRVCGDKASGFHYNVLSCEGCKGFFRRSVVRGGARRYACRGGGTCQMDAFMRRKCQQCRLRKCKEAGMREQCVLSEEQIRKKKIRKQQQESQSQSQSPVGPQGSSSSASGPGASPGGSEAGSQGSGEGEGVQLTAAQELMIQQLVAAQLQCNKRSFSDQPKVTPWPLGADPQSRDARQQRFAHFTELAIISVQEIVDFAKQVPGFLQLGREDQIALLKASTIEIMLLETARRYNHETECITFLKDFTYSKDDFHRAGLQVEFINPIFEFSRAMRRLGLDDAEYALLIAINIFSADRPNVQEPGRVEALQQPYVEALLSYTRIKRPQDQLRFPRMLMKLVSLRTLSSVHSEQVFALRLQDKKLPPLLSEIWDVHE

[39] = target: T4, Oxysterols receptor LXR-beta; assay type: functional, cell-based

Kappa-type opioid receptor, sequence (P41145 whole entry): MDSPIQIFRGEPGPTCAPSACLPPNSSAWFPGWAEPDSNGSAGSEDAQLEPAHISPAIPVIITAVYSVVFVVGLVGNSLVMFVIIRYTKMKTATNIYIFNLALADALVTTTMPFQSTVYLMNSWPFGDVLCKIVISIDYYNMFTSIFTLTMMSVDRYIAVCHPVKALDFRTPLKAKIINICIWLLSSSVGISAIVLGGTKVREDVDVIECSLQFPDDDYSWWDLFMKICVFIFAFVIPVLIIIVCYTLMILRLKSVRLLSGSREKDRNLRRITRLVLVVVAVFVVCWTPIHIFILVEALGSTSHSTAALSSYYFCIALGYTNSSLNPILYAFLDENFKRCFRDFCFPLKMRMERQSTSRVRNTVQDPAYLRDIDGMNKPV
1-phosphatidylinositol 4,5-bisphosphate phosphodiesterase gamma-1, sequence (P19174 whole entry, the tested form may be a part): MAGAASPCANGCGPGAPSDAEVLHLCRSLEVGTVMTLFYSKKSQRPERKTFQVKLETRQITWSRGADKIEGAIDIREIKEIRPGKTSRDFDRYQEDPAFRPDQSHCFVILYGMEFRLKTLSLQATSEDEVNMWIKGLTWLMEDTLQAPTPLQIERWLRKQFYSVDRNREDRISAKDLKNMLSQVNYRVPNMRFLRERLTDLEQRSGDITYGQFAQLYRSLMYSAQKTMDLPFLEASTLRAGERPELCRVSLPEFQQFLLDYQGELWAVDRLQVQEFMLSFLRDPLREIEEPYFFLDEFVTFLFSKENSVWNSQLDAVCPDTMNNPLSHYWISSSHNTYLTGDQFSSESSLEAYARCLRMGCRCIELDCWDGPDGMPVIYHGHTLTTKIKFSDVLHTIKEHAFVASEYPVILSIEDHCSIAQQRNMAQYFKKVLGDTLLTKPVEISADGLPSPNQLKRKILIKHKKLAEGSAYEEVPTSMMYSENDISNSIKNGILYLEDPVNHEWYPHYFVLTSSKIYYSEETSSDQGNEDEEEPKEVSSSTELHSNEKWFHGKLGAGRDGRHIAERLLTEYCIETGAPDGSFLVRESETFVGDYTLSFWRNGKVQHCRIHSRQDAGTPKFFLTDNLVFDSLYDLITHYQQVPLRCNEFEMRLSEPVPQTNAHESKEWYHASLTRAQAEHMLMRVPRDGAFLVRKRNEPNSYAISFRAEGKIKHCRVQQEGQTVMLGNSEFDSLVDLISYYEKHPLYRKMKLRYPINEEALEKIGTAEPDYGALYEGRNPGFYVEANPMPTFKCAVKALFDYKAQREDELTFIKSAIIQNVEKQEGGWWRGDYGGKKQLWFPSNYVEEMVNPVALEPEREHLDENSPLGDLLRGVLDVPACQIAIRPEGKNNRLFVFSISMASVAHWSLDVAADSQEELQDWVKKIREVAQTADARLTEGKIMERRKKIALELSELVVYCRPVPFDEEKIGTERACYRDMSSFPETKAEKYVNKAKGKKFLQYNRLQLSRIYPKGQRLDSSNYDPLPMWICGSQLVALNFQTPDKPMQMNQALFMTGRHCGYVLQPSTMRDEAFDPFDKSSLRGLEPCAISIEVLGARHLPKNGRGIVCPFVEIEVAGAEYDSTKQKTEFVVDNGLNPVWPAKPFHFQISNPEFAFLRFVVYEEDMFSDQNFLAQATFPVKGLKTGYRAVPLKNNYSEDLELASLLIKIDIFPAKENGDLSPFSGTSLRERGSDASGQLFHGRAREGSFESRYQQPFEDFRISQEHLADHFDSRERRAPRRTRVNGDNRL
SWI/SNF-related matrix-associated actin-dependent regulator of chromatin subfamily A member 2, sequence (P51531 whole entry): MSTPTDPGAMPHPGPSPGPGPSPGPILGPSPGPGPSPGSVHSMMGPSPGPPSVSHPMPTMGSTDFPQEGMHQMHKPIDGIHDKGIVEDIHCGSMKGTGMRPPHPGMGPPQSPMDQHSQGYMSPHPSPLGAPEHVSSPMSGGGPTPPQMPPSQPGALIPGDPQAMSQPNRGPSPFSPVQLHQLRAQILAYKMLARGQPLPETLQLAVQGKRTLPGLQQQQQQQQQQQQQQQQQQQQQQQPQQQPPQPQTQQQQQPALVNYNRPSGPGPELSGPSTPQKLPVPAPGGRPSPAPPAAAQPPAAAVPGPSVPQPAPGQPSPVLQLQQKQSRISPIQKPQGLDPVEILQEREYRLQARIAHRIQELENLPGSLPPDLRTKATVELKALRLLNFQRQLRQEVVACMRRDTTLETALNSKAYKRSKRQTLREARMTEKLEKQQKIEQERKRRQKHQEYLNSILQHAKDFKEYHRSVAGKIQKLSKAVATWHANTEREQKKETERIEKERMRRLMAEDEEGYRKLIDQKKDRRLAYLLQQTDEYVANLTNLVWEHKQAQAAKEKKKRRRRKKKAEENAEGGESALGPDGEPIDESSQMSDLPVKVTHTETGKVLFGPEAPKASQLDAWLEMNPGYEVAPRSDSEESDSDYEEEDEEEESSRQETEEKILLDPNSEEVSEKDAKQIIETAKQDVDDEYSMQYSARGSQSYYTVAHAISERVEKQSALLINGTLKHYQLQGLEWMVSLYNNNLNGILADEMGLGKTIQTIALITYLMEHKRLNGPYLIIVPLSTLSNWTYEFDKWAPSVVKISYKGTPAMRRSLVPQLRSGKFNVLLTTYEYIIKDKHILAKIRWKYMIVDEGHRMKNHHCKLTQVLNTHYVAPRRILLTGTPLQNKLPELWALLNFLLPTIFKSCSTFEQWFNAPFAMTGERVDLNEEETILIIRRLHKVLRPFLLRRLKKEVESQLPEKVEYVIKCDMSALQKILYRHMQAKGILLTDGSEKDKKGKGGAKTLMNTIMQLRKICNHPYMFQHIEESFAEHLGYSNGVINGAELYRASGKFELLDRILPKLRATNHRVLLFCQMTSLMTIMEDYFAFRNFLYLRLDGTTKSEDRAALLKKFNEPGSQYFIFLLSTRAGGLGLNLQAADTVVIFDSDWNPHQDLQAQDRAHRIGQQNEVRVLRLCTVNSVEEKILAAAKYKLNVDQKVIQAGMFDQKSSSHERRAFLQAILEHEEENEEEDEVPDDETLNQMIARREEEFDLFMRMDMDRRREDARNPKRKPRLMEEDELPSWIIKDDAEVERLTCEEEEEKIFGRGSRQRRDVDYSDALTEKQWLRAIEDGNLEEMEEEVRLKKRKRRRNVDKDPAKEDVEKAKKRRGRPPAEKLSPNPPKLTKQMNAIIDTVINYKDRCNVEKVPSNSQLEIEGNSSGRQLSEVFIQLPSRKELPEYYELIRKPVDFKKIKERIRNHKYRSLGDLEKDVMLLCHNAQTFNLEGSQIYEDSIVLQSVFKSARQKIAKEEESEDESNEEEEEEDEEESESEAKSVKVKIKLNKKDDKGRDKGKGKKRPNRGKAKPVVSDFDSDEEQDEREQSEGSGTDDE
Luciferin 4-monooxygenase, sequence (P08659 whole entry): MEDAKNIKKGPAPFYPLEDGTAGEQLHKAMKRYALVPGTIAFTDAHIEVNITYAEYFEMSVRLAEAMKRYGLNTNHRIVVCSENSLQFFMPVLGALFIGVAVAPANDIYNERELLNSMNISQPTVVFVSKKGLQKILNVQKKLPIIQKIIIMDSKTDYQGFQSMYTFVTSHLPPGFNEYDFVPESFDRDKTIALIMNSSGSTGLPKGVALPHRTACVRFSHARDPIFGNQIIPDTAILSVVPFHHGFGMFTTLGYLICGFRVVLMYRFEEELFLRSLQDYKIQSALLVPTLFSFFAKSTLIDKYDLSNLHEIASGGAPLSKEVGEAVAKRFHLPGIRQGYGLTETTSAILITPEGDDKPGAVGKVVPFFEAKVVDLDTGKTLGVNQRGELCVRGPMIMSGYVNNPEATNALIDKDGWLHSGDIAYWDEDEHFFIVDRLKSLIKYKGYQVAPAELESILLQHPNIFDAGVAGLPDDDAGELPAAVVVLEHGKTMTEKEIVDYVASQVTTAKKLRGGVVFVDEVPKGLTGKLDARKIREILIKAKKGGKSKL
Mu-type opioid receptor, sequence (P35372 whole entry): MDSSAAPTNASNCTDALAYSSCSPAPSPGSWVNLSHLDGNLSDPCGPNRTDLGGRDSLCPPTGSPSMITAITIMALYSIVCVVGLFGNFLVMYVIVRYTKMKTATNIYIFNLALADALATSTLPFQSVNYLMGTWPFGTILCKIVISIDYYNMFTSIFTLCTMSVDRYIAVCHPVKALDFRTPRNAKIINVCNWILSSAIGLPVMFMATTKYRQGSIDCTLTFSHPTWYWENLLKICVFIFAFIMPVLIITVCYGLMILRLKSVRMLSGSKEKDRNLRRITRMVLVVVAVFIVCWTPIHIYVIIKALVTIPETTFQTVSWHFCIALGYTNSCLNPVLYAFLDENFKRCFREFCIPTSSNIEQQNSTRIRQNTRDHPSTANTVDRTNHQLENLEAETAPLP
Delta-type opioid receptor, sequence (P41143 whole entry): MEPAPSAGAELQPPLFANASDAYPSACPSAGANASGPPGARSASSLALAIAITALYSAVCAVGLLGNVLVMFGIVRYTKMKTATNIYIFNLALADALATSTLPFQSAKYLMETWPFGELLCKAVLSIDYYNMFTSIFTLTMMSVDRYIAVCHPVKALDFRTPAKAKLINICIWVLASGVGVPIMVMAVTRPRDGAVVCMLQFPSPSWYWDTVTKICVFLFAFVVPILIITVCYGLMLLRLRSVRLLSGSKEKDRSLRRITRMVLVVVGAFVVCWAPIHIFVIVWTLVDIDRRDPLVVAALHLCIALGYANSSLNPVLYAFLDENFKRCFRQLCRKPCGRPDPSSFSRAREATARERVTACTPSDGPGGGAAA
Sphingosine 1-phosphate receptor 1, sequence (P21453 whole entry): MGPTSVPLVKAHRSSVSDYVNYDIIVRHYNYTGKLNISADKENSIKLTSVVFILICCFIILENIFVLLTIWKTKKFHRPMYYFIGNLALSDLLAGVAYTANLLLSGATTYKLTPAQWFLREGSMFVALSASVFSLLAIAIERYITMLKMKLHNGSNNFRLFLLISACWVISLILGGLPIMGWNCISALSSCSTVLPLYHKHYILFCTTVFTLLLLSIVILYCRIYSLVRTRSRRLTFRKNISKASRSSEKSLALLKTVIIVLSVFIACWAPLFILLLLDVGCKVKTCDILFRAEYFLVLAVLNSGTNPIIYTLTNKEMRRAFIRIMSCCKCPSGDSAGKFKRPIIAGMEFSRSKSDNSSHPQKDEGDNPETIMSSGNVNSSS

O=C(NCc1nc2ccccc2[nH]1)C1=C[C@H](c2ccc3c(c2)OCO3)C[C@H](OCCCCO)O1
IC50 [1]: > 83.3 µM (inactive) | IC50 [2]: 3.35 µM (active) | IC50 [3]: 1.84 µM (active) | IC50 [4]: 83.3 µM (inactive)

Cc1cc(NC(=O)CSc2nc(-c3ccco3)cc(C(F)(F)F)n2)no1
AC50 [5]: > 30 µM (inactive) | EC50 [6]: 6.41 µM (active) | EC50 [7]: 1.59 µM (active)

O=C(NCc1ccc(F)cc1)c1cc2c(s1)CCCC2
IC50 [8]: > 123 µM (inactive) | IC50 [9]: > 123 µM (inactive)

C[C@@H]1CN([C@H](C)CO)C(=O)c2cccc(NS(=O)(=O)c3ccc(Cl)cc3)c2O[C@@H]1CN(C)Cc1ccc(Cl)c(Cl)c1
AC50 [10]: 52.9 µM (active) | AC50 [11]: 1.45 µM (active) | AC50 [12]: 7.39 µM (active) | AC50 [13]: 18.9 µM (active)

Clc1ccc(-c2nnc(SCc3ccccn3)o2)cc1
IC90 [14]: 62 µM (active) | IC90 [15]: 4 µM (active) | IC90 [16]: 4 µM (active) | AC50 [17]: 27.8 µM (active) | AC50 [18]: > 52 µM (inactive)

CN(C)c1cccc2c1c(NC(=O)Nc1ccc(OCc3ccccc3)cc1)nn2C
IC50 [19]: 34.9 µM (inactive) | IC50 [20]: 4.38 µM (active) | IC50 [21]: 1.82 µM (active) | IC50 [22]: 42.9 µM (inactive)

Fc1ccc(Cn2cc(CSc3nnc(C4CCC4)o3)nn2)cc1
IC90 [14]: 250 µM (active) | AC50 [23]: 47.1 µM (active) | IC90 [15]: 4 µM (active) | IC90 [16]: 4 µM (active)

O=C(Nc1nc(-c2ccncc2)cs1)C1COc2ccccc2O1 (configuration not stated)
AC50 [24]: 0.512 µM (active) | IC50 [25]: > 80 µM (inactive) | CC50 [26]: 100 µM (active)

c1ccc2cc3c(NCCN4CCOCC4)ccnc3cc2c1
AC50 [27]: 21.2 µM (active) | EC50 [28]: 11.1 µM (inactive) | AC50 [29]: 9.44 µM (active) | AC50 [30]: 2.91 µM (active) | AC50 [31]: 6.11 µM (active) | EC50 [32]: > 91.2 µM (inactive) | AC50 [33]: 12 µM (active)

Oc1cccc(/C=C/c2ccc3cccc(O)c3n2)c1
AC50 [34]: 26 µM (active) | AC50 [35]: 3.91 µM (active) | IC50 [36]: > 67.6 µM (inactive) | IC50 [37]: > 100 µM (inactive) | EC50 [38]: > 67.6 µM (inactive) | EC50 [39]: > 67.6 µM (inactive)
